Converted amounts (≈) assume the structure as drawn. The source made the active and inactive calls. The calls are words filed in the database; no cut-off is given here.
Tests used:
Staphylococcus aureus [1] = experiment: Antibacterial activity against clinical isolate multi-drug resistant Staphylococcus aureus sal assessed as inhibition of bacterial growth; assay type: functional
Streptococcus suis = experiment: Antibacterial activity against clinical isolate Streptococcus suis harbouring IsaE and ErmA gene assessed as inhibition of bacterial growth measured after 24 hrs by MH broth based assay; assay type: functional
[2] = tested on: Streptococcus hyovaginalis; experiment: Antibacterial activity against clinical isolate Streptococcus hyovaginalis harbouring ErmB and tetO gene assessed as inhibition of bacterial growth measured after 24 hrs by MH broth based assay; assay type: functional
Staphylococcus aureus [3] = experiment: Antibacterial activity against clinical isolate Staphylococcus aureus harbouring erm C gene assessed as inhibition of bacterial growth measured after 24 hrs by MH broth based assay; assay type: functional
Enterococcus = experiment: Antibacterial activity against vancomycin-resistant Enterococcus ATCC 700221 assessed as inhibition of bacterial growth measured after 24 hrs by MH broth based assay; assay type: functional
Klebsiella pneumoniae [4] = experiment: Antibacterial activity against Klebsiella pneumonia CMCC (B) 46117 assessed as inhibition of bacterial growth measured after 24 hrs by MH broth based assay; assay type: functional
Staphylococcus aureus [5] = experiment: Antibacterial activity against Staphylococcus aureus ATCC 29213 assessed as inhibition of bacterial growth measured after 24 hrs by MH broth based assay; assay type: functional
Staphylococcus aureus [6] = experiment: Antibacterial activity against clinical isolate Staphylococcus aureus harbouring cfr and erm C gene assessed as inhibition of bacterial growth measured after 24 hrs by MH broth based assay; assay type: functional
Staphylococcus aureus [7] = experiment: Antibacterial activity against multi-drug resistant Staphylococcus aureus sa1 infected in ip dosed BABL/C mouse assessed as survival rate measured upto 7 days; assay type: functional; conditions: sa1, 168 h, time <= 7 day
[8] = tested on: Staphylococcus epidermidis; experiment: Antibacterial activity against methicillin-resistant Staphylococcus epidermidis ATCC 51625 assessed as inhibition of bacterial growth measured after 24 hrs by MH broth based assay; assay type: functional
Staphylococcus aureus [9] = experiment: Antibacterial activity against multi-drug resistant Staphylococcus aureus sa1 infected in BABL/C mouse assessed as lymphocyte infiltration at 20 mg/kg, ip; assay type: functional, organism-based
Staphylococcus aureus [10] = experiment: Antibacterial activity against multi-drug resistant Staphylococcus aureus sa1 infected in BABL/C mouse assessed as reduction in bacterial load in lungs at 20 mg/kg, ip measured after 2 days; assay type: functional; conditions: time 2 day
Escherichia coli [11] = experiment: Antibacterial activity against clinical isolate Escherichia coli harbouring NDM-17 gene assessed as inhibition of bacterial growth measured after 24 hrs by MH broth based assay; assay type: functional
[12] = tested on: Streptococcus hyovaginalis; experiment: Antibacterial activity against clinical isolate Streptococcus hyovaginalis harbouring IsaE and optrA gene assessed as inhibition of bacterial growth measured after 24 hrs by MH broth based assay; assay type: functional
Staphylococcus aureus [13] = experiment: Antibacterial activity against clinical isolate Staphylococcus aureus harbouring IsaE gene assessed as inhibition of bacterial growth measured after 24 hrs by MH broth based assay; assay type: functional
Staphylococcus aureus [14] = experiment: Antibacterial activity against clinical isolate Staphylococcus aureus harbouring cfr gene assessed as inhibition of bacterial growth measured after 24 hrs by MH broth based assay; assay type: functional
Escherichia coli [15] = experiment: Antibacterial activity against Escherichia coli ATCC 25922 assessed as inhibition of bacterial growth measured after 24 hrs by MH broth based assay; assay type: functional
Staphylococcus aureus [16] = experiment: Antibacterial activity against methicillin-resistant Staphylococcus aureus ATCC 43300 assessed as inhibition of bacterial growth measured after 24 hrs by MH broth based assay; assay type: functional
Streptococcus pneumoniae [17] = experiment: Antibacterial activity against clinical isolate Streptococcus pneumoniae harbouring ermB gene assessed as inhibition of bacterial growth measured after 24 hrs by MH broth based assay; assay type: functional
Staphylococcus aureus [18] = experiment: Antibacterial activity against Staphylococcus aureus ATCC 29213 assessed as inhibition of bacterial division at 1 to 4 times of MIC by SEM analysis; assay type: functional, organism-based
Enterococcus lactis = experiment: Antibacterial activity against clinical isolate Enterococcus lactis assessed as inhibition of bacterial growth measured after 24 hrs by MH broth based assay; assay type: functional
Proteus = experiment: Antibacterial activity against Proteus CMCC (B) 49027 assessed as inhibition of bacterial growth measured after 24 hrs by MH broth based assay; assay type: functional
Staphylococcus aureus [19] = experiment: Antibacterial activity against methicillin-resistant Staphylococcus aureus assessed as resistance development by measuring fold increase in MIC measured after 24 days; assay type: functional; conditions: time 24 day
Escherichia coli [20] = experiment: Antibacterial activity against Escherichia coli MG1655 assessed as inhibition of bacterial growth measured after 24 hrs by MH broth based assay; assay type: functional
Streptococcus parasuis [21] = experiment: Antibacterial activity against clinical isolate Streptococcus parasuis harbouring optrA gene assessed as inhibition of bacterial growth measured after 24 hrs by MH broth based assay; assay type: functional
Staphylococcus aureus [22] = experiment: Antibacterial activity against multi-drug resistant Staphylococcus aureus sa1 infected in BABL/C mouse assessed as appearance of congested pulmonary capillaries at 20 mg/kg, ip; assay type: functional, organism-based
Klebsiella pneumoniae [23] = experiment: Antibacterial activity against clinical isolate Klebsiella pneumoniae harbouring blaKpc gene assessed as inhibition of bacterial growth measured after 24 hrs by MH broth based assay; assay type: functional
Staphylococcus aureus [24] = experiment: Antibacterial activity against clinical isolate Staphylococcus aureus harbouring blaZ gene assessed as inhibition of bacterial growth measured after 24 hrs by MH broth based assay; assay type: functional
Staphylococcus aureus [25] = experiment: Antibacterial activity against clinical isolate Staphylococcus aureus harbouring IsaA, cfr and erm A gene assessed as inhibition of bacterial growth measured after 24 hrs by MH broth based assay; assay type: functional
Klebsiella pneumoniae [26] = experiment: Antibacterial activity against clinical isolate Klebsiella pneumoniae harbouring mcr-8 gene assessed as inhibition of bacterial growth measured after 24 hrs by MH broth based assay; assay type: functional
Streptococcus parasuis [27] = experiment: Antibacterial activity against clinical isolate Streptococcus parasuis harbouring InuD gene assessed as inhibition of bacterial growth measured after 24 hrs by MH broth based assay; assay type: functional
Bacillus subtilis = experiment: Antibacterial activity against Bacillus subtilis ATCC 6633 assessed as inhibition of bacterial growth measured after 24 hrs by MH broth based assay; assay type: functional
Staphylococcus aureus [28] = experiment: Antibacterial activity against clinical isolate Staphylococcus aureus harbouring ArlS, norA and MgrA gene assessed as inhibition of bacterial growth measured after 24 hrs by MH broth based assay; assay type: functional
Aerococcus viridans = experiment: Antibacterial activity against clinical isolate Aerococcus viridans harbouring optrA and ErmA gene assessed as inhibition of bacterial growth measured after 24 hrs by MH broth based assay; assay type: functional
Staphylococcus aureus [29] = experiment: Antibacterial activity against compound-resistant/methicillin-resistant Staphylococcus aureus assessed as inhibition of bacterial growth; assay type: functional
Staphylococcus aureus [30] = experiment: Antibacterial activity against tiamulin-resistant/methicillin-resistant Staphylococcus aureus assessed as inhibition of bacterial growth; assay type: functional
Escherichia coli [31] = experiment: Antibacterial activity against Escherichia coli MG1655 harbouring acrB gene assessed as inhibition of bacterial growth measured after 24 hrs by MH broth based assay; assay type: functional
Staphylococcus aureus [32] = experiment: Antibacterial activity against clinical isolate multi-drug resistant Staphylococcus aureus sal assessed as reduction in log10 CFU at 6 times of MIC measured after 8 hrs by time-kill assay; assay type: functional
Staphylococcus aureus [33] = experiment: Antibacterial activity against multi-drug resistant Staphylococcus aureus sa1 infected in BABL/C mouse assessed as neutrophil infiltration at 20 mg/kg, ip; assay type: functional, organism-based
Enterococcus hirae = experiment: Antibacterial activity against clinical isolate Enterococcus hirae assessed as inhibition of bacterial growth measured after 24 hrs by MH broth based assay; assay type: functional
Staphylococcus aureus [34] = experiment: Antibacterial activity against multi-drug resistant Staphylococcus aureus sa1 infected in BABL/C mouse assessed as reduction in bacterial load in lungs at 40 mg/kg, ip measured after 2 days; assay type: functional; conditions: time 2 day
Streptococcus pneumoniae [35] = experiment: Antibacterial activity against Streptococcus pneumoniae ATCC 49619 assessed as inhibition of bacterial growth measured after 24 hrs by MH broth based assay; assay type: functional
Staphylococcus aureus [36] = experiment: Antibacterial activity against multi-drug resistant Staphylococcus aureus sa1 infected in BABL/C mouse assessed as survival rate at 40 mg/kg, ip measured upto 7 days; assay type: functional; conditions: sa1, 168 h, time <= 7 day
Staphylococcus aureus [37] = experiment: Antibacterial activity against multi-drug resistant Staphylococcus aureus sa1 infected in BABL/C mouse assessed as appearance of alveolar septa thickening at 20 to 40 mg/kg, ip; assay type: functional, organism-based; conditions: dose 20-40 mg/kg
Staphylococcus aureus [38] = experiment: Antibacterial activity against clinical isolate Staphylococcus aureus harbouring tet38 gene assessed as inhibition of bacterial growth measured after 24 hrs by MH broth based assay; assay type: functional

SMILES: C=C[C@]1(C)C[C@@H](OC(=O)CSCCN(CC)CC)[C@]2(C)[C@H](C)CC[C@]3(CCC(=O)[C@H]32)[C@@H](C)[C@@H]1O [TIAMULIN]
- MIC (Staphylococcus aureus [1]): 128 µg/mL (≈ 259 µM)
- MIC (Streptococcus suis): 64 µg/mL (≈ 130 µM)
- MIC [2]: 64 µg/mL (≈ 130 µM)
- MIC (Staphylococcus aureus [3]): 32 µg/mL (≈ 64.8 µM)
- MIC (Enterococcus): 64 µg/mL (≈ 130 µM)
- MIC (Klebsiella pneumoniae [4]): 16 µg/mL (≈ 32.4 µM)
- MIC (Staphylococcus aureus [5]): 0.5 µg/mL (≈ 1.01 µM)
- MIC (Staphylococcus aureus [6]): 128 µg/mL (≈ 259 µM)
- ED50 (Staphylococcus aureus [7]): 47.5 mg/kg
- MIC [8]: 0.25 µg/mL (≈ 0.506 µM)
- Activity (Staphylococcus aureus [9]): Active
- Activity (Staphylococcus aureus [10]): 1.35 log10CFU/ml
- MIC (Escherichia coli [11]): 64 µg/mL (≈ 130 µM)
- MIC [12]: 64 µg/mL (≈ 130 µM)
- MIC (Staphylococcus aureus [13]): 128 µg/mL (≈ 259 µM)
- MIC (Staphylococcus aureus [14]): 128 µg/mL (≈ 259 µM)
- MIC (Escherichia coli [15]): > 64 µg/mL
- MIC (Staphylococcus aureus [16]): 0.5 µg/mL (≈ 1.01 µM)
- MIC (Streptococcus pneumoniae [17]): 32 µg/mL (≈ 64.8 µM)
- Activity (Staphylococcus aureus [18]): Active
- MIC (Enterococcus lactis): 128 µg/mL (≈ 259 µM)
- MIC (Proteus): > 64 µg/mL
- fold change (FC) (Staphylococcus aureus [19]): 64
- MIC (Escherichia coli [20]): 64 µg/mL (≈ 130 µM)
- MIC (Streptococcus parasuis [21]): 64 µg/mL (≈ 130 µM)
- Activity (Staphylococcus aureus [22]): Active
- MIC (Klebsiella pneumoniae [23]): 32 µg/mL (≈ 64.8 µM)
- MIC (Staphylococcus aureus [24]): 0.5 µg/mL (≈ 1.01 µM)
- MIC (Staphylococcus aureus [25]): 128 µg/mL (≈ 259 µM)
- MIC (Klebsiella pneumoniae [26]): 16 µg/mL (≈ 32.4 µM)
- MIC (Streptococcus parasuis [27]): 64 µg/mL (≈ 130 µM)
- MIC (Bacillus subtilis): 64 µg/mL (≈ 130 µM)
- MIC (Staphylococcus aureus [28]): 0.5 µg/mL (≈ 1.01 µM)
- MIC (Aerococcus viridans): 32 µg/mL (≈ 64.8 µM)
- MIC (Staphylococcus aureus [29]): 1 µg/mL (≈ 2.03 µM)
- MIC (Staphylococcus aureus [30]): 64 µg/mL (≈ 130 µM)
- MIC (Escherichia coli [31]): 2 µg/mL (≈ 4.05 µM)
- Activity (Staphylococcus aureus [32]): Active
- Activity (Staphylococcus aureus [33]): Active
- MIC (Enterococcus hirae): 8 µg/mL (≈ 16.2 µM)
- Activity (Staphylococcus aureus [34]): 1.94 log10CFU/ml
- MIC (Streptococcus pneumoniae [35]): 0.063 µg/mL (≈ 0.128 µM)
- survival at 40 mg/kg (Staphylococcus aureus [36]): 50%
- Activity (Staphylococcus aureus [37]): Active
- MIC (Staphylococcus aureus [38]): 0.25 µg/mL (≈ 0.506 µM)

— ChEMBL document CHEMBL5346923, “Novel pyridinium cationic pleuromutilin analogues overcoming bacterial multidrug resistance” (Eur J Med Chem, 2023)
